Consider two compounds from patent US12144299B2, “Mobilisation of transposable elements to enhance genetic and epigenetic variability in a population” (priority 2015, dated 2024).

One assay concerns ONSEN retrotransposon. The assay can be described thus: ONSEN extrachromosomal DNA accumulation by qPCR in seedlings after heat stress. It counts as in vivo, Arabidopsis thaliana. The following applies: HS. As to the method:
After stratification for two days at 4° C., Arabidopsis thaliana plants (accession Col-0) were grown on sterile ½ MS medium with 1% sucrose and a pH of 5.8 (control medium) under long day conditions (16 h light) at 24° C. (day) and 22° C. (night), respectively. Oryza sativa plants were grown on sterile ½ MS medium with 1% sucrose and a pH of 5.8 (control medium) 16 h at 28° C. (day) and 27° C. (night), respectively.
The induction of epigenetic changes and the activation and stable integration of transposable elements in Arabidopsis seedlings was enhanced by germinating and growing them on ½ MS-medium that contained zebularine (final concentration: 10-40 μM), α-amanitin (final concentration: 0.005-20 μg/ml) or a combination of both chemicals (inductive media).
In order to trigger the transposition of the heat-responsive retrotransposon ONSEN, seven days old seedlings were exposed to a cold shock for 24 h at 6° C. followed by a heat-stress for 24 h at 37° C. (heat stress, HS) under controlled conditions in a growth chamber (Sanyo). Control plants were transferred back to longday-conditions 24° C. (day) and 22° C. (night) after the cold treatment at 6° C. for 24 h (CS, control stress, according to Ito et al., 2011).
Total DNA from seedlings and adult plants was isolated using a DNeasy Plant Mini Kit (QIAGEN).
In preparation to the measurement of extrachromosomal DNA copies of ONSEN in CS/HS and untreated/treated seedlings, roots were dissected directly after the heat stress and plants were immediately frozen in liquid nitrogen until DNA extraction.
The copy numbers of ONSEN were determined with qPCRs on total DNA using a TaqMan master mix (Life Technologies) in a final volume of 10 μl in the Light-Cycler 480 (Roche). ACTOPIA17 copy number was measured by quantitative PCR (qPCR) in a Light-Cycler 480 (Roche), using […] Master Mix. Actin2 (At3g18780) served as a standard gene for normalization.

The subject of assay [1] is A549 human cancer cell line. The assay can be described thus: Global DNA methylation (5-mC DNA ELISA) in A549 cells. The following applies: A 0.5 μg/ml, Z 350 μM. It counts as cell-based. The procedure: (§1) For the A549 human cancer cell line cells were grown in medium without treatment or supplemented with either Z (350 μM) or A (0.5 μg/ml), DNA was extracted by using the QiaAmp DNA mini Kit (Qiagen, France). Next, global DNA methylation was estimated by quantifying the presence of 5-methylcytosine 5-mC DNA ELISA Kit (Zymo Research) according to the manufacturers's instructions. DNA methylation at the LINE-1 transposons were assessed with the Global DNA Methylation Assay—LINE-1 kit (Active Motif).

A further assay deals with LINE-1 retrotransposon. The assay can be described thus: LINE-1 DNA methylation assay in A549 cells. It is filed as cell-based, human. The following applies: A 0.5 μg/ml, Z 350 μM. As to the method: as §1
For another assay, the system named is ONSEN LTR. As to the kind of experiment: DNA methylation analysis (DdeI chop PCR, bisulfite sequencing) at the ONSEN LTR. It counts as in vivo, Arabidopsis thaliana. As to the method:
20 ng of total genomic DNA isolated from Arabidopsis seedlings was digested with the methylation sensitive restriction enzyme, Dde1 (NEB) at 37° C. over night. Following heat inactivation at 60° C. for 20 min, the digested DNA was used as a template for the chopPCR. Actin2 served as a control for the digest. Undigested DNA was used as a loading control. PCR products were separated on a 1% agarose gel and stained with Midori Green.

Structures are written as SMILES. “Also recorded” adds a separate entry of the source.

On to `CC[C@H](C)[C@@H]1NC(=O)CNC(=O)[C@@H]2Cc3c([nH]c4cc(O)ccc34)[S+]([O-])C[C@@H](NC(=O)CNC1=O)C(=O)N[C@@H](CC(N)=O)C(=O)N1C[C@H](O)C[C@H]1C(=O)N[C@@H]([C@@H](C)[C@@H](O)CO)C(=O)N2` (stereo partly drawn) [A, alpha-amanitin], for which the “ONSEN copy number at different α-amanitin concentrations” value in the assay on ONSEN retrotransposon (Col wildtype seedlings, α-amanitin in different concentrations in μg/ml) is listed as “dose dependent accumulation”. The “ONSEN ecDNA accumulation in dcl2/3/4 triple mutant” value with ONSEN retrotransposon (dcl2/3/4 triple-mutant grown on A) is listed as “no effect”. In the assay with ONSEN retrotransposon (rdr6 plants grown on A), the “ONSEN ecDNA accumulation in rdr6 mutant” value is “still enhancing ecDNA accumulation”. Besides, in the assay on ONSEN retrotransposon (wild-type seedlings, A 5 μg/ml, Z 40 μM), the “ONSEN ecDNA accumulation after heat stress” value is recorded as “increase in ONSEN ecDNA”. In addition, in assay [1], the “reduction of global DNA methylation” value is reported as 40%. In addition, the “reduction of DNA methylation at LINE-1” value in the assay with LINE-1 retrotransposon turned out to be 40%. Besides, the “DNA methylation at the ONSEN LTR at higher A concentration” value in the assay on ONSEN LTR (WT (Col) seedlings, A 20 μg/ml, Z 10 μM) is on record as “reduction in DNA-methylation; also recorded: strongly reduced DNA methylation”. The “CHH methylation at the ONSEN LTR” value with ONSEN LTR (after CS, A 5 μg/ml, Z 40 μM) is recorded as “reduced CHH methylation levels”.
Consider `O=c1ncccn1[C@@H]1O[C@H](CO)[C@@H](O)[C@H]1O` [Z, zebularine], for which the “reduction of DNA methylation at LINE-1” value with LINE-1 retrotransposon stood at 20%.
